Source: patent publication US20060116451A1, “Stabilization of antioxidants” (priority 2004, published 2006)

Assay: Residual antioxidant activity (ABTS^+) upon exposure to UV-irradiated TiO2
Format: physicochemical
Conditions: FIG. 6
Experimental: Exposure of enzymes to UV-irradiated TiO2: Enzyme (0.8 mg protein/mL, total 10 mL in 25 mM phosphate buffer, pH 7.5) was placed in an open scintillation vial. TiO2 fine powder (0.25 mg/mL) was added to the protein solution and the suspension was stirred gently at room temperature (25° C.) with a magnetic stir bar placed inside the vial. The enzyme-TiO2 suspension was placed under a […] UV lamp (model No. B-100AP, UVP, San Gabriel, Calif.). The distance between the UV lamp and the vial was 18 cm. At this distance, the UV irradiance at 365 nm (λmax) was 8 mW/cm^2 (determined using a […]® UV meter (Model No. J-221). It was also verified that there was no thermal denaturation of the enzyme during irradiation and the temperature of the enzyme-TiO2 suspension remained constant (25±2° C.) throughout. Exposure of antioxidants to UV-irradiated TiO2: Trolox (0.01 mg/mL) was dissolved in 10 mL phosphate buffer (25 mM, pH 7.5). TiO2 (0.25 mg/mL) was added to the Trolox solution. The suspension was stirred and irradiated with UV as described above. At 30 min intervals, 1 mL aliquots were removed from the irradiating suspension and filtered through a 0.2 μm filter. […] Determination of residual antioxidant activity: Antioxidant activities of modified enzymes and the modifiers were measured according to the following modification of the assay reported by Re et al. Re, […].; Yang, M.; Rice-Evans, C. […]

Cc1c(C)c2c(c(C)c1O)CCC(C)(C(=O)O)O2 (stereo not shown) [Trolox, 6-hydroxy-2,5,7,8-tetramethylchroman-2-carboxylic acid]
loss of free radical absorbing activity during the first hour of photooxidation (TiO2-UV): 80%
